# Results: patent US20030144347A1, “Method for treating autoimmune disease” (priority 2001, published 2003)
# Experiments:
# Format in all cases: in vivo, human
# [1] = system: patient suffering from diabetes, Type 1; experiment: Case report: patient suffering from diabetes, Type 1; settings: Example 2
# Protocol: A patient suffering from diabetes, Type 1, was administered 25 mg per day of topiramate for 10 days, which was then increased to 50 mg per day.
# [2] = system: patient suffering from rheumatoid arthritis; experiment: Case reports: patients suffering from rheumatoid arthritis
# Protocol: A patient suffering from rheumatoid arthritis was administered 25 mg per day of topiramate with an increase every 10 days by 25 mg until 25 mg, 3 times per day, was achieved. The patient previously took 3 or 4 tablets per day of lortab, seven 2.5 mg tablets of methotrexate once a week, 200 mg per day of minocycline and 10 mg per day of prednisone.
# An adolescent patient suffering from rheumatoid arthritis began taking 15 mg per day of topiramate for one week, which was then increased by 15 mg weekly until 45 mg per day, in three divided dosages of 15 mg each, was reached. The patient previously took 3 to 5 mg of prednisone daily.
# A patient suffering from rheumatoid arthritis with a positive rheumatic factor about 3 decades earlier, at which time they also experienced polyarthritis and Renaud's phenomena, was treated with prednisone 40 mg per day for six months and was then weaned off the prednisone after one year. In the ensuing years, psoriasis developed on both elbows which was worse in the winter. They were an avid golfer and experienced painful swelling and stiffness of both wrists and hands, especially the left, and back pain and stiffness. […] They were begun on Topamax 15 mg a day which was increased weekly by 15 mg until 45 mg per day was taken in divided doses.
# [3] = system: patient suffering from psoriatic arthritis; experiment: Case reports: patients suffering from psoriatic arthritis
# Protocol: A patient suffering from psoriatic arthritis began taking 15 mg per day of topiramate. […] When the dose was increased slightly to 25 mg twice a day, the patient realized they were experiencing minimal pain and resumed garden work using a rototiller for the first time in two years. These benefits have continued for more than five months at this dose. […] This has continued for more than ten months. A patient suffering from psoriatic arthritis began taking 25 mg per day of topiramate. The dosage was increased each week until […] was achieved. […] The patient was stabilized at 25 mg, twice a day, for convenience. Their benefits from topiramate have continued for almost five months.
# [4] = system: patient suffering from ulcerative colitis; experiment: Case reports: patients suffering from ulcerative colitis; settings: Example 9
# Protocol: A patient suffering from ulcerative colitis began taking 25 mg per day of topiramate, with dosage increases of 25 mg/day each week. […] By the end of nine months, the patient's weight was decreased to 270 lbs from 315 lbs. Their disease was no longer affecting their ability to go to or stay at work. Their colonoscopy exam was negative for the first time since the onset of their illness.
# [5] = system: patient suffering from systemic lupus erythematosis; experiment: Case report: patient suffering from systemic lupus erythematosis; settings: Example 11
# Protocol: A young adolescent patient suffering from systemic lupus erythematosis and taking 30 mg bid of prednisone began taking 15 mg per day of topiramate. […] The prednisone was reduced to 25 mg per day after 4 weeks and to 10 mg after 6 weeks. This benefit has continued for over 6 months.
# [6] = system: patient suffering from psoriasis; experiment: Case reports: patients suffering from psoriasis
# Protocol: A patient suffering from psoriasis began taking 15 mg per day of topiramate for seven days, which was increased by 15 mg per day until reaching a dose of 45 mg/day in equally divided doses.
# [7] = system: patient with rapid mood swings and severe intense itching; experiment: Case report: patient with rapid mood swings and severe intense itching; settings: Example 19; 12.5 mg at bedtime increased weekly until 50 mg
# Protocol: A patient presented with rapid mood swings and a complaint of severe intense itching from clothing tags and some clothing, which began over twenty years ago. They were begun on gabapenten which was increased to 300 mg qid. […] Their itching was unchanged. They were begun on Topamax 12.5 mg at bedtime which was increased weekly by 12.5 mg until 50 mg.
# [8] = system: patient with eosinophilic gastroenteritis; experiment: Case report: patient with recurrent eosinophilic gastroenteritis; settings: Example 20; 7.5 mg every three days then 7.5 mg every other day; withdrawn from prednisone
# Protocol: A patient presented depressed related to a 15 pound weight gain following a recurrent of eosinophilic gastroenteritis treated with 20 mg of prednisone. This was their third bout in two years, all confirmed by a stomach biopsy. Each recurrence began between four and five months after being withdrawn from steroids, which had caused physical side effects and suspiciousness. A trial of Topamax 7.5 mg every three days and then 7.5 mg every other day was begun.
# [9] = system: patient suffering from ulcerative colitis; experiment: Case reports: patients suffering from ulcerative colitis
# [10] = Example 6, 25 mg per day, 4 weeks
smiles,measurement,setting,value
"CC1(C)O[C@@H]2[C@@H](CO[C@@]3(COS(N)(=O)=O)OC(C)(C)O[C@@H]23)O1 [topiramate, 2,3:4,5-bis-O-(1-methylethylidence)-β-D-fructopyranose sulfamate]",follow-up period with blood glucose remaining in that range,[1],16 weeks
same,duration of benefit,[2]; Example 3,15 weeks
same,mobility,"[2]; Example 3, 25 mg, 3 times per day",increased mobility
same,pain (patient reported),"[2]; Example 3, 25 mg, 3 times per day, lortab and minocycline discontinued, prednisone and methotrexate reduced",significant decrease in pain
same,decrease in pain,"[2]; Example 4, adolescent patient, 15 mg twice a day",40-50%
same,reduction in pain,"[2]; Example 4, adolescent patient, 45 mg per day",70%
same,duration of benefits,"[2]; Example 4, prednisone decreased to 0.5 mg/day",four
same,psoriasis,"[2]; Example 17, 45 mg per day in divided doses",improvement in their psoriasis
same,"joint pain in both hands, self-rating scale of 0 to 10","[2]; Example 17, 45 mg per day in divided doses, decreased from 6",2
same,getting out of bed,"[3]; Example 5, 15 mg every morning and 30 mg every evening, after one month",able to more easily get out of bed
same,skin lesions and joint pain,"[3]; Example 5, 15 mg twice per day",some improvement in skin lesions and decreased joint pain
same,duration of benefits,"[3]; Example 5, 25 mg twice a day",more than five
same,pain,"[3]; Example 5, 25 mg twice a day",minimal pain
same,duration of improvement,"[3]; Example 6, 7.5 mg twice a day",more than ten
same,adverse effect,[3]; [10],severe lethargy
same,middle knuckle swelling,[3]; [10],significant reduction and almost total disappearance
same,course of improvement,"[3]; Example 6, dose reduced to 7.5 mg twice a day",improvement continued
same,duration of benefits,"[3]; Example 7, 25 mg, twice a day",five
same,pain and mobility,"[3]; Example 7, 45 mg per day",significant decrease in pain and greater mobility
same,colonoscopy exam,[4],negative
same,symptoms,[4]; 50 mg twice a day,decreased intensity of symptoms
same,symptoms,[4]; 75 mg twice a day,decreased frequency of symptoms
same,diarrhea,"[4]; 100 mg twice a day, asakol dosage reduced",diarrhea had stopped
same,clinical change,[5]; 15 mg in the morning and 30 mg every evening,further improvement
same,clinical change,"[5]; 15 mg per day, after seven days",minimal change
same,carbohydrate craving,[5]; 15 mg twice a day,markedly reduced
same,"facial and body rash, headaches, joint pain",[5]; 15 mg twice a day,"began to subside, headaches disappeared and joint pain greatly diminished"
same,energy and mood,"[5]; 15 mg twice a day, over the next two weeks",striking improvement in energy and mood
same,duration of benefit,[5]; prednisone reduced to 10 mg,over 6 months
same,time at which PASI decrease was maintained,[6]; Example 12,16 weeks
same,psoriasis area and severity index (PASI),"[6]; Example 12, 25 mg bid, within 8 weeks, from 12.2",5.4
same,lesions,"[6]; Example 12, after 10 days at 45 mg",began to decrease
same,lesions,"[6]; Example 16, 15 mg every other day",minimal improvement
same,lesions,"[6]; Example 16, 15 mg per day for 7 days",some improvement
same,lesions,"[6]; Example 16, 30 mg/day in divided dosages",began to get worse
same,lesions,"[6]; Example 16, 45 mg/day in divided doses",clear deterioration
same,lesions,"[6]; Example 16, 60 mg per day",new lesions were occurring
same,PASI,"[6]; Example 16, within the first eight weeks, judged to be unchanged",29.1
same,itching,[7],no itching at all
same,mood,[7],true stabilization of my mood
same,time without recurrence of symptoms,[8],19 months
same,duration of benefit,"[9]; Example 8, 7.5 mg per day",more than 16 weeks
same,mucous,"[9]; Example 8, 7.5 mg per day, after 7 days",decrease in mucous
same,mucous and bleeding,"[9]; Example 8, 7.5 mg per day, after two weeks",no mucous or bleeding
same,adverse effect,"[9]; Example 8, 15 mg per day",tired during the day
same,"stools, bowel frequency, mucous","[9]; Example 8, 15 mg per day, after two weeks",stools became darker with increase bowel frequency of movements and mucous
same,"mucous, bowel movements, bleeding","[9]; Example 8, resumed at 7.5 mg per day","decrease in mucous, bowel movements and bleeding"
same,duration of benefit,"[9]; Example 10, 7.5 mg per day",18 weeks
same,"bowel frequency, bleeding and mucous","[9]; Example 10, 15 mg per day, within one week","significant decrease in bowel frequency, bleeding and mucous"
same,"bowel frequency, bleeding and mucous","[9]; Example 10, dose increased to 30 and then to 45 mg per day",reversal of benefits and then a further exacerbation of systems
same,"bowel frequency, bleeding and mucous","[9]; Example 10, resumed at 7.5 mg per day","significant decrease in frequency of bowel movement, bleeding and mucous"
